Earlier results in PMC11478287, “Design and Synthesis of Pyridyl and 2-Hydroxyphenyl Chalcones with Antitubercular Activity” (Molecules, 2024).

Test system: PtpA
Parameters: method as in PMID 18930396
Conditions: cited from earlier work

In the case of `COc1cc(C(=O)/C=C/c2ccc3c(c2)OCO3)cc(OC)c1OC` [Compound 2], the “PtpA inhibition activity (in words)” value is listed as “very low PtpA inhibition activity”.
